We go through 20 compounds from US12662491B2 (Redona Therapeutics, Inc., priority 2020, dated 2026).

For one test, the target named is T1, Zcchc11 enzyme (Homo sapiens, UniProt Q5TAX3).
T1 construct: made in house; host or cells: HEK293 cells (Zcchc11); E. coli Rosetta II (LIN28A)
T1 sequence (Q5TAX3 212-1420): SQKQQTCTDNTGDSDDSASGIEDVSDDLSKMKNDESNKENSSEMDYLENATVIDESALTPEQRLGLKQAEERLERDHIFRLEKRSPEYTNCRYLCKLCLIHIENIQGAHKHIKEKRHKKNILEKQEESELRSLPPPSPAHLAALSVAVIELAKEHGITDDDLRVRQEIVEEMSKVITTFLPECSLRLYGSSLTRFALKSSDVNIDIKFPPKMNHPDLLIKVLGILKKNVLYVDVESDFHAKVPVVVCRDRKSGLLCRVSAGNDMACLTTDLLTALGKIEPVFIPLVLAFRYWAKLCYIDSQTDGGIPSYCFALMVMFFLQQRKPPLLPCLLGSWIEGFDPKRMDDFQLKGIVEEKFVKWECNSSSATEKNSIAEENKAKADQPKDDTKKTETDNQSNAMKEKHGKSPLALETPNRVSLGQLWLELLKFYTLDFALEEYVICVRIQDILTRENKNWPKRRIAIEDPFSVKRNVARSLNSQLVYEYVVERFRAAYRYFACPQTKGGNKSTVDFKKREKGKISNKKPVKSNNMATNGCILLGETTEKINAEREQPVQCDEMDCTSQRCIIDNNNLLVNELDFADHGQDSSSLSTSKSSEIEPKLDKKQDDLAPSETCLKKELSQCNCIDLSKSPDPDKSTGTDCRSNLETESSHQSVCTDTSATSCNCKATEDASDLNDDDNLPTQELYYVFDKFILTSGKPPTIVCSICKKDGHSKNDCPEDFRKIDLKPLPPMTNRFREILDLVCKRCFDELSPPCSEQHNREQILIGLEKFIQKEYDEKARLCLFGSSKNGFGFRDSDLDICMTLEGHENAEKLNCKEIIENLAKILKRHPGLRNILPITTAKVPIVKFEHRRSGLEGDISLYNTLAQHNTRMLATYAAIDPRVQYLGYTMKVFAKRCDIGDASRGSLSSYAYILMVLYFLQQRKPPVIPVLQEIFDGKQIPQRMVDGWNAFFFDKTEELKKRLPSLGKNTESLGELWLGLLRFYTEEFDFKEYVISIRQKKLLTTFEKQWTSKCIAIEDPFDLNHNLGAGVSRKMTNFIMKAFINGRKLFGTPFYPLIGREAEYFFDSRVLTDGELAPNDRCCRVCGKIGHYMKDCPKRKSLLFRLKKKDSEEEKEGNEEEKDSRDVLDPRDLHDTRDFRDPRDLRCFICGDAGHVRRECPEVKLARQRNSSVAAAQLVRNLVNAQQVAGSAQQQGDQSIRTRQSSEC
Nature of the test: TUTase assay (Zcchc11 assay, Lin28a-dependent polyuridylation of pre-let-7). In kind it is biochemical. The settings on record: LIN28A 10 nM, Zcchc11 0.2 nM, 5′-fluorescein pre-let-7 miRNA 2 nM, UTP 5 uM, room temperature, 30 minutes pre-incubation; read-out: Potency Lin28a-dep Z11 IC50. An outline of the steps:
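Readout: time-dependent quench of 5′-fluorescein pre-let-7 (2 nM) as 3′-rhodamine A20 probe anneals to poly(U) tails. Enzyme 0.2 nM Zcchc11 (res. 212-1420), LIN28A 10 nM, UTP 5 uM; pH 7.3 HEPES, 150 mM KCl, 5 mM MgCl2, RT. 4-parameter IC50; 100% = DMSO, 0% = no UTP.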
On to `CN(C)c1ccc(-n2cc(C(=O)O)c(=O)c3cc(Cl)c(N4CCC[C@@H]4COc4ncccc4OCCN)cc32)cn1` [Example 53, 7-[(2R)-2-([[3-(2-Aminoethoxy)pyridin-2-yl]oxy]methyl)pyrrolidin-1-yl]-6-chloro-1-[6-(dimethylamino)pyridin-3-yl]-4-oxoquinoline-3-carboxylic acid], for which the concentration for half-maximal inhibition (IC50) is ≤ 1000 nM.
The same measure, in the same setting: to `COc1ccnc(OC[C@H]2CCCN2c2cc3c(cc2Cl)c(=O)c(C(=O)O)cn3-c2ccc(N3CC(N(C)C)C3)nc2)c1Cl` [Example 75, 6-chloro-7-[(2R)-2-{[(3-chloro-4-methoxypyridin-2-yl)oxy]methyl}pyrrolidin-1-yl]-1-{6-[3-(dimethylamino)azetidin-1-yl]pyridin-3-yl}-4-oxo-1,4-dihydroquinoline-3-carboxylic acid] belongs ≤ 1000 nM; to `Cc1cccnc1OC[C@H]1CCCN1c1cc2c(cc1F)c(=O)c(C(=O)O)cn2-c1ccc(N)nc1` [Example 13, (R)-1-(6-aminopyridin-3-yl)-6-fluoro-7-(2-(((3-methylpyridin-2-yl)oxy)methyl)pyrrolidin-1-yl)-4-oxo-1,4-dihydroquinoline-3-carboxylic acid], ≤ 1000 nM.

The same test, now with this note: Lin28a-dependent Zcchc11 (Z11) TUTase activity; read-out: Potency Lin28a-dep Z11 IC50.
As to `O=C(O)c1cn(-c2cccc(F)c2F)c2cc(N3CCC[C@@H]3COc3ccccn3)c(F)cc2c1=O` [Compound 142, (R)-1-(2,3-difluorophenyl)-6-fluoro-4-oxo-7-(2-((pyridin-2-yloxy)methyl)pyrrolidin-1-yl)-1,4-dihydro-quinoline-3-carboxylic acid], the 50% inhibitory concentration (IC50) was in the range of 1000 to 10000 nM.
As for `Cc1c(-n2cc(C(=O)O)c(=O)c3cc(Cl)c(N4CCC[C@@H]4COc4ncccc4Cl)cc32)cnn1C` (racemic) [Compound 179, rac-(R)-6-chloro-7-(2-(((3-chloropyridin-2-yl)oxy)methyl)pyrrolidin-1-yl)-1-(1,5-dimethyl-1H-pyrazol-4-yl)-4-oxo-1,4-dihydro-quinoline-3-carboxylic acid], the IC50 was ≤ 1000 nM.
As to `Cc1cccc(-n2cc(C(=O)O)c(=O)c3cc(F)c(N4CCC[C@@H]4COc4ccccn4)cc32)c1` [Compound 155, (R)-6-fluoro-4-oxo-7-(2-((pyridin-2-yloxy)methyl)pyrrolidin-1-yl)-1-(m-tolyl)-1,4-dihydro-quinoline-3-carboxylic acid], the half-inhibitory concentration (IC50) is ≤ 1000 nM.
Consider `CC(=O)Nc1ccc(-n2cc(C(=O)O)c(=O)c3cc(F)c(N4CCC[C@@H]4COc4ccccn4)cc32)cc1` [Compound 159, (R)-1-(4-acetamido-phenyl)-6-fluoro-4-oxo-7-(2-((pyridin-2-yloxy)methyl)pyrrolidin-1-yl)-1,4-dihydro-quinoline-3-carboxylic acid], for which the half-maximal inhibitory concentration (IC50) was ≤ 1000 nM.
Regarding `O=C(O)c1cn(-c2ccccc2)c2cc(N3CCC[C@@H]3COc3ncccc3F)c(F)cc2c1=O` [Compound 98, (R)-6-fluoro-7-(2-(((3-fluoropyridin-2-yl)oxy)methyl)pyrrolidin-1-yl)-4-oxo-1-phenyl-1,4-dihydro-quinoline-3-carboxylic acid], the IC50 was ≤ 1000 nM.
In the case of `O=C(O)c1cn(-c2cc(F)ccc2Cl)c2cc(N3CCC[C@@H]3COc3ccccn3)c(F)cc2c1=O` [Compound 153, (R)-1-(2-chloro-5-fluorophenyl)-6-fluoro-4-oxo-7-(2-((pyridin-2-yloxy)methyl)pyrrolidin-1-yl)-1,4-dihydro-quinoline-3-carboxylic acid], the IC50 lay in the range of 1000 to 10000 nM.
On to `Cn1cc(-n2cc(C(=O)O)c(=O)c3cc(Cl)c(N4CCC[C@@H]4COc4ncccc4Cl)nc32)cn1` (racemic) [Compound 191, rac-(R)-6-chloro-7-(2-(((3-chloropyridin-2-yl)oxy)methyl)pyrrolidin-1-yl)-1-(1-methyl-1H-pyrazol-4-yl)-4-oxo-1,4-dihydro-1,8-naphthyridine-3-carboxylic acid], for which the IC50 is ≤ 1000 nM.
Take `Nc1cc(-n2cc(C(=O)O)c(=O)c3cc(Cl)c(N4CCC[C@@H]4COc4ncccc4Cl)cc32)ccn1` [Compound 209, (R)-1-(2-aminopyridin-4-yl)-6-chloro-7-(2-(((3-chloropyridin-2-yl)oxy)methyl)pyrrolidin-1-yl)-4-oxo-1,4-dihydro-quinoline-3-carboxylic acid]: the IC50 was ≤ 1000 nM.

Still in this test, the particulars now being: Lin28a-dependent Zcchc11 (Z11) TUTase assay; read-out: Potency Lin28a-dep Z11 IC50.
Consider `Cc1cc2c(=O)c(C(=O)O)cn(-c3ccc(N4CC(N(C)C)C4)nc3)c2nc1N1CCC[C@@H]1COc1ncccc1Cl` [Example 633, (R)-7-(2-(((3-chloropyridin-2-yl)oxy)methyl)pyrrolidin-1-yl)-1-(6-(3-(dimethylamino)azetidin-1-yl)pyridin-3-yl)-6-methyl-4-oxo-1,4-dihydro-1,8-naphthyridine-3-carboxylic acid], for which the IC50 is ≤ 1000 nM.
On to `Cc1cccnc1OC[C@H]1CCCN1c1cc2c(cc1Cl)c(=O)c(C(=O)O)cn2C1(C)CCOCC1` [Example 459, (R)-6-chloro-7-(2-(((3-methylpyridin-2-yl)oxy)methyl)pyrrolidin-1-yl)-1-(4-methyltetra-hydro-2H-pyran-4-yl)-4-oxo-1,4-dihydroquinoline-3-carboxylic acid], for which the half-inhibitory concentration (IC50) fell in the range of 1000 to 10000 nM.
Same read-out and setting: to `CN(CCN1CCC1)c1ccc(-n2cc(C(=O)O)c(=O)c3cc(Cl)c(N4CCC[C@@H]4COc4ncccc4Cl)cc32)cn1` [Example 601, (R)-1-(6-((2-(azetidin-1-yl)ethyl)(methyl)amino)pyridin-3-yl)-6-chloro-7-(2-(((3-chloropyridin-2-yl)oxy)methyl)pyrrolidin-1-yl)-4-oxo-1,4-dihydroquinoline-3-carboxylic acid] belongs ≤ 1000 nM; to `CN(C)C1CN(c2ccc(-n3cc(C(=O)O)c(=O)c4cc(Cl)c(N5CCC[C@@H]5CS(=O)(=O)c5ncccc5Cl)cc43)cn2)C1` [Example 618, (R)-6-chloro-7-(2-(((3-chloropyridin-2-yl)sulfonyl)methyl)pyrrolidin-1-yl)-1-(6-(3-(dimethylamino)azetidin-1-yl)pyridin-3-yl)-4-oxo-1,4-dihydroquinoline-3-carboxylic acid], ≤ 1000 nM.
On the same count and under the same terms, to `CN(C)CCOc1ccc(-n2cc(C(=O)O)c(=O)c3cc(Cl)c(N4CCC[C@@H]4COc4ncccc4Cl)cc32)cn1` [Example 418, (R)-6-chloro-7-(2-(((3-chloropyridin-2-yl)oxy)methyl)pyrrolidin-1-yl)-1-(6-(2-(dimethylamino)ethoxy)pyridin-3-yl)-4-oxo-1,4-dihydroquinoline-3-carboxylic acid] belongs ≤ 1000 nM; to `CN(C)[C@H]1CCN(c2ccc(-n3cc(C(=O)O)c(=O)c4cc(Cl)c(N5CCC[C@@H]5COc5ncccc5Cl)cc43)cn2)C1` [Example 521, 6-chloro-7-((R)-2-(((3-chloropyridin-2-yl)oxy)methyl)pyrrolidin-1-yl)-1-(6-((S)-3-(dimethylamino)pyrrolidin-1-yl)pyridin-3-yl)-4-oxo-1,4-dihydroquinoline-3-carboxylic acid], ≤ 1000 nM.
Same read-out and setting: the value for `COc1ccc(Cl)c(OC[C@H]2CCCN2c2cc3c(cc2Cl)c(=O)c(C(=O)O)cn3-c2ccnc(N)c2)n1` [Example 644, (R)-1-(2-aminopyridin-4-yl)-6-chloro-7-(2-(((3-chloro-6-methoxypyridin-2-yl)oxy)methyl)pyrrolidin-1-yl)-4-oxo-1,4-dihydroquinoline-3-carboxylic acid] was ≤ 1000 nM; that for `O=C(O)c1cn(-c2ccc(O)c(Cl)c2)c2cc(N3CCC[C@@H]3COc3ccccn3)c(F)cc2c1=O` [Example 408, (R)-1-(3-chloro-4-hydroxyphenyl)-6-fluoro-4-oxo-7-(2-((pyridin-2-yloxy)methyl)pyrrolidin-1-yl)-1,4-dihydroquinoline-3-carboxylic acid] was ≤ 1000 nM; that for `Cc1cccnc1OC[C@H]1CCCN1c1cc2c(cc1F)c(=O)c(C(=O)O)cn2-c1ccc2[nH]ccc2c1` [Example 442, (R)-6-fluoro-1-(1H-indol-5-yl)-7-(2-(((3-methyl-pyridin-2-yl)oxy)methyl)pyrrolidin-1-yl)-4-oxo-1,4-dihydroquinoline-3-carboxylic acid] was ≤ 1000 nM.
